The source of these data is patent US11951094B2, “TLR2 modulator compounds, pharmaceutical compositions and uses thereof” (Axial Therapeutics, Inc., priority 2020, dated 2024).

The pEC50 is the EC50 on a negative log10 scale, so that one unit is a factor of ten.

pEC50: −log10 of the molar value. Bounds are passed on as bounds.

Chain of TLR2 (O60603 21-784): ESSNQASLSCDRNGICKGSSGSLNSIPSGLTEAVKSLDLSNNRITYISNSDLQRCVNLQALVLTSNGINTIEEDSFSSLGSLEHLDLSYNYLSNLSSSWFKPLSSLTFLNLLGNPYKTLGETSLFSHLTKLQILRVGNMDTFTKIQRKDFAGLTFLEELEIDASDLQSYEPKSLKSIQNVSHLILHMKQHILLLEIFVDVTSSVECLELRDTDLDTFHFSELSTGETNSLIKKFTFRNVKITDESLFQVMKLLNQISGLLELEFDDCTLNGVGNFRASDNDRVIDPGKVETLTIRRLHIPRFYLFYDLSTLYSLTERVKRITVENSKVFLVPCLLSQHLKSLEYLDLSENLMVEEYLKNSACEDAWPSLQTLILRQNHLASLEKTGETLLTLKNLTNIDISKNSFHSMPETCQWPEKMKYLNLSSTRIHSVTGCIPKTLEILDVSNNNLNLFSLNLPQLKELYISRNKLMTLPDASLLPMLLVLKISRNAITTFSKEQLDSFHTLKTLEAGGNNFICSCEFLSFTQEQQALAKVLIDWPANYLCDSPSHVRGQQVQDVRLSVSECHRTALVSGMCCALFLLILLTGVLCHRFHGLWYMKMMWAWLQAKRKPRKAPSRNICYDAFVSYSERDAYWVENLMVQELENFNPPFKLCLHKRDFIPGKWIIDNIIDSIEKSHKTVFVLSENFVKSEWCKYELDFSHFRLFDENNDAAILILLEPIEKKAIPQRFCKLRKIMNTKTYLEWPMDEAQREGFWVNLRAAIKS

One assay deals with TLR2 (Homo sapiens, UniProt O60603). Nature of the assay: TLR2 agonist screening assay, HEK-Blue TLR2 reporter cell line (NF-kB-driven SEAP, absorbance at 600 nm). Further details: host or cells: HEK-293 (HEK-Blue TLR2 reporter cell line). The conditions noted are these: HEK-Blue TLR2 reporter cells, agonist mode; average of all runs (Table 3). The format is cell-based. In a few lines:
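TLR2 engagement is scored through NF-kB-induced secreted alkaline phosphatase in HEK-293 cells, detected by substrate colour change at 600 nm after overnight compound treatment at 1% final DMSO. Potency is expressed as EC50.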
In turn, `CCCCCCCNC(=O)[C@@H]1CN(C(=O)c2ccc(C(=O)N3C[C@@H](C(=O)N[C@H]4C[C@@H]4c4ccccc4)[C@H](C(=O)N[C@H]4C[C@@H]4c4ccccc4)C3)cc2)C[C@H]1OCCCCCCC` (relative stereo) [Compound 062, (3S,4S)-1-(4-((3R*,4S*)-3-(heptylcarbamoyl)-4-(heptyloxy)pyrrolidine-1-carbonyl)benzoyl)-N3,N4-bis((1S,2R)-2-phenylcyclopropyl)pyrrolidine-3,4-dicarboxamide] showed a pEC50 of 6.46 to 7.29.

For the molecule `CCCCCCCCCC(=O)N1CCN(C(=O)c2ccc(C(=O)N3C[C@@H](C(=O)N[C@H]4C[C@@H]4c4ccccc4)[C@H](C(=O)N[C@H]4C[C@@H]4c4ccccc4)C3)cc2)CC1C(=O)NCCCCCC` (stereo partly drawn) [Compound 064, (3S,4S)-1-(4-(4-decanoyl-3-(hexylcarbamoyl)piperazine-1-carbonyl)benzoyl)-N3,N4-bis((1S,2R)-2-phenylcyclopropyl)pyrrolidine-3,4-dicarboxamide], the pEC50 is 7.30 to 10.00. The same measure, in the same setting: for `CCCCCCCC(=O)N1CCN(C(=O)c2ccc(C(=O)N3C[C@@H](C(=O)N[C@H]4C[C@@H]4c4ccccc4)[C@H](C(=O)N[C@H]4C[C@@H]4c4ccccc4)C3)cc2)CC1C(=O)NCCCC` (mixture of isomers) [Compound 046, (3S,4S)-1-(4-(3-(butylcarbamoyl)-4-octanoylpiperazine-1-carbonyl)benzoyl)-N3,N4-bis((1S,2R)-2-phenylcyclopropyl)pyrrolidine-3,4-dicarboxamide] the value was 6.46 to 7.29. Consider `O=C(N[C@H]1C[C@@H]1c1ccccc1)[C@@H]1CN(C(=O)c2cnc(C(=O)N3C[C@@H](C(=O)N[C@H]4C[C@@H]4c4ccccc4)[C@H](C(=O)N[C@H]4C[C@@H]4c4ccccc4)C3)nc2)C[C@H]1C(=O)N[C@H]1C[C@@H]1c1ccccc1` [Compound 071, (3S,3'S,4S,4'S)-1,1′-(pyrimidine-2,5-dicarbonyl)bis(N3,N4-bis((1S,2R)-2-phenylcyclopropyl)pyrrolidine-3,4-dicarboxamide)], for which the pEC50 is 6.46 to 7.29. For the molecule `CCCCCCNC(=O)[C@H]1CN(C(=O)c2ccc(C(=O)N3C[C@@H](C(=O)N[C@H]4C[C@@H]4c4ccccc4)[C@H](C(=O)N[C@H]4C[C@@H]4c4ccccc4)C3)cc2)C[C@@H]1C(=O)NCCCCCC` [Compound 029], the negative logarithm of the EC50 (pEC50) was 6.46 to 7.29. The same measure, in the same setting: next, `CCCCCCCC(=O)N1CCN(C(=O)c2ccc(C(=O)N3C[C@@H](C(=O)N[C@H]4C[C@@H]4c4ccccc4)[C@H](C(=O)N[C@H]4C[C@@H]4c4ccccc4)C3)cc2)CC1C(=O)NCCCCCC` (stereo partly drawn) [Compound 019, (3S,4S)-1-(4-(3-(hexylcarbamoyl)-4-octanoylpiperazine-1-carbonyl)benzoyl)-N3,N4-bis((1S,2R)-2-phenylcyclopropyl)pyrrolidine-3,4-dicarboxamide]: 7.30 to 10.00.

Still in this assay, the particulars now being: HEK-Blue TLR2 reporter cells, agonist mode; average of all runs (Table 4).
As for `CCCCCCCCCC(=O)N[C@@H](Cc1nnc(-c2ccc(C(=O)N3C[C@@H](C(=O)N[C@H]4C[C@@H]4c4ccccc4)[C@H](C(=O)N[C@H]4C[C@@H]4c4ccccc4)C3)cc2)o1)C(=O)NCCCCCC` [Compound 259, (3S,4S)-1-(4-(5-((S)-2-decanamido-3-(hexylamino)-3-oxopropyl)-1,3,4-oxadiazol-2-yl)benzoyl)-N3,N4-bis((1S,2R)-2-phenylcyclopropyl)pyrrolidine-3,4-dicarboxamide], the pEC50 is 6.00 to 6.45.

As for `CCCCCCNC(=O)[C@H](CN[C@@H](c1ccc(C(=O)N2C[C@@H](C(=O)N[C@H]3C[C@@H]3c3ccccc3)[C@H](C(=O)N[C@H]3C[C@@H]3c3ccccc3)C2)cc1)C(F)(F)F)NC(=O)CCCCCC` (single isomer, unassigned) [Compound 148], the negative-log EC50 (pEC50) was 6.00 to 6.45. With `CCCCCCCCCCCCCCNC(=O)[C@@H]1CN(Cc2ccc(C(=O)N3C[C@@H](C(=O)N[C@H]4C[C@@H]4c4ccccc4)[C@H](C(=O)N[C@H]4C[C@@H]4c4ccccc4)C3)cc2)CCN1C` [Compound 088, (3S,4S)-1-(4-(((S)-4-methyl-3-(tetradecylcarbamoyl)piperazin-1-yl)methyl)benzoyl)-N3,N4-bis((1S,2R)-2-phenylcyclopropyl) pyrrolidine-3,4-dicarboxamide], the pEC50 is < 6.00. With `CCCCCCCCCCCCCCNC(=O)C1COC(=O)N(Cc2ccc(C(=O)N3C[C@@H](C(=O)N[C@H]4C[C@@H]4c4ccccc4)[C@H](C(=O)N[C@H]4C[C@@H]4c4ccccc4)C3)cc2)C1` (stereo partly drawn) [Compound 179], the pEC50 is < 6.00. Same read-out and setting: next, `CCCCCCCCCCCCCCNC(=O)[C@@H]1CN(C(=O)c2ccc(C(=O)N3C[C@@H](C(=O)N[C@H]4C[C@@H]4c4ccccc4)[C@H](C(=O)N[C@H]4C[C@@H]4c4ccccc4)C3)cc2)CCO1` [Compound 151, (3S,4S)—N3,N4-bis((1S,2R)-2-phenylcyclopropyl)-1-(4-((S)-2-(tetradecylcarbamoyl)morpholine-4-carbonyl)benzoyl)pyrrolidine-3,4-dicarboxamide]: < 6.00; `CCCCCCCCCCCCCCC(=O)N[C@H]1CCCN(C(=O)c2ccc(C(=O)N3C[C@@H](C(=O)N[C@H]4C[C@@H]4c4ccccc4)[C@H](C(=O)N[C@H]4C[C@@H]4c4ccccc4)C3)cc2)C1` [Compound 124, (3S,4S)-1-(4-((S)-3-pentadecanamidopiperidine-1-carbonyl)benzoyl)-N3,N4-bis((1S,2R)-2-phenylcyclopropyl)pyrrolidine-3,4-dicarboxamide]: < 6.00; `CCCCCCCCCCCCCCNC(=O)[C@H]1CN(C(=O)c2ccc(C(=O)N3C[C@@H](C(=O)N[C@H]4C[C@@H]4c4ccccc4)[C@H](C(=O)N[C@H]4C[C@@H]4c4ccccc4)C3)cc2)CCN1C(C)=O` [Compound 163, (3S,4S)-1-(4-((R)-4-acetyl-3-(tetradecylcarbamoyl)piperazine-1-carbonyl)benzoyl)-N3,N4-bis((1S,2R)-2-phenylcyclopropyl)pyrrolidine-3,4-dicarboxamide]: 6.00 to 6.45.

For the molecule `CCCCCCCO[C@H]1CN(C(=O)c2ccc(C(=O)N3C[C@@H](C(=O)N[C@H]4C[C@@H]4c4ccccc4)[C@H](C(=O)N[C@H]4C[C@@H]4c4ccccc4)C3)cc2)C[C@H]1C(=O)NCCCCCC` (single isomer, unassigned) [Compound 115, (3S,4S)-1-(4-((3R*,4R*)-3-(heptyloxy)-4-(hexylcarbamoyl)pyrrolidine-1-carbonyl)benzoyl)-N3,N4-bis((1S,2R)-2-phenylcyclopropyl)pyrrolidine-3,4-dicarboxamide], the pEC50 is < 6.00. On the same count and under the same terms, for `CCCCCCCCCCCCCCCN[C@@H]1CCN(C(=O)c2ccc(C(=O)N3C[C@@H](C(=O)N[C@H]4C[C@@H]4c4ccccc4)[C@H](C(=O)N[C@H]4C[C@@H]4c4ccccc4)C3)cc2)C1` [Compound 082, (3S,4S)-1-(4-((R)-3-(pentadecylamino)pyrrolidine-1-carbonyl)benzoyl)-N3,N4-bis((1S,2R)-2-phenylcyclopropyl)pyrrolidine-3,4-dicarboxamide] the value was < 6.00. With `CCCCCCCCCCCCCCNC(=O)[C@@H]1CN(C(=O)c2ccc(C(=O)N3C[C@@H](C(=O)N[C@H]4C[C@@H]4c4ccccc4)[C@H](C(=O)N[C@H]4C[C@@H]4c4ccccc4)C3)cc2)CCN1C(=O)C(C)(C)C` [Compound 251, (3S,4S)—N3,N4-bis((1S,2R)-2-phenylcyclopropyl)-1-(4-((S)-4-pivaloyl-3-(tetradecylcarbamoyl)piperazine-1-carbonyl)benzoyl)pyrrolidine-3,4-dicarboxamide], the pEC50 was < 6.00. The molecule `CO[C@H]1CN(C(=O)c2ccc(C(=O)N3C[C@@H](C(=O)N[C@H]4C[C@@H]4c4ccccc4)[C@H](C(=O)N[C@H]4C[C@@H]4c4ccccc4)C3)cc2)C[C@@H]1NC(=O)NCc1ccc(F)cc1` [Compound 183, (3S,4S)-1-(4-((3S,4S)-3-(3-(4-fluorobenzyl)ureido)-4-methoxypyrrolidine-1-carbonyl)benzoyl)-N3,N4-bis((1S,2R)-2-phenylcyclopropyl)pyrrolidine-3,4-dicarboxamide] showed a pEC50 of 6.46 to 7.29.

In turn, `CCCCCCCCCCCCCCNC(=O)[C@@H]1CN(Cc2ccc(C(=O)N3C[C@@H](C(=O)N[C@H]4C[C@@H]4c4ccccc4)[C@H](C(=O)N[C@H]4C[C@@H]4c4ccccc4)C3)cc2)C(=O)CN1C` [Compound 093, (3S,4S)-1-(4-(((S)-4-methyl-2-oxo-5-(tetradecylcarbamoyl)piperazin-1-yl)methyl)benzoyl)-N3,N4-bis((1S,2R)-2-phenylcyclopropyl)pyrrolidine-3,4-dicarboxamide] showed a pEC50 of 6.46 to 7.29.

Turning to `CCCNC(=O)[C@@H]1CN(C(=O)c2ccc(C(=O)N3C[C@@H](C(=O)N[C@H]4C[C@@H]4c4ccccc4)[C@H](C(=O)N[C@H]4C[C@@H]4c4ccccc4)C3)cc2)CCN1C(C)=O` [Compound 265, (3S,4S)-1-(4-((S)-4-acetyl-3-(propylcarbamoyl)piperazine-1-carbonyl)benzoyl)-N3,N4-bis((1S,2R)-2-phenylcyclopropyl) pyrrolidine-3,4-dicarboxamide], the pEC50 is < 6.00. Consider `CCCCCCCCCCCCCCC(=O)NC1CCN(S(=O)(=O)c2cccc(C(=O)N3C[C@@H](C(=O)N[C@H]4C[C@@H]4c4ccccc4)[C@H](C(=O)N[C@H]4C[C@@H]4c4ccccc4)C3)c2)CC1` [Compound 194, (3S,4S)-1-(3-((4-pentadecanamidopiperidin-1-yl)sulfonyl)benzoyl)-N3,N4-bis((1S,2R)-2-phenylcyclopropyl)pyrrolidine-3,4-dicarboxamide], for which the pEC50 is < 6.00. Still for that read-out and setting: for `CCCCCCCC(=O)N1CCCN(S(=O)(=O)c2ccc(C(=O)N3C[C@@H](C(=O)N[C@H]4C[C@@H]4c4ccccc4)[C@H](C(=O)N[C@H]4C[C@@H]4c4ccccc4)C3)cc2)CC1C(=O)NCCCCCC` (single isomer, unassigned) [Compound 202, (3S,4S)-1-(4-(((S*)-3-(hexylcarbamoyl)-4-octanoyl-1,4-diazepan-1-yl)sulfonyl)benzoyl)-N3,N4-bis((1S,2R)-2-phenylcyclopropyl)pyrrolidine-3,4-dicarboxamide] the value was 6.46 to 7.29.
